Measurements: paper PMC3320615, “β-Microseminoprotein Endows Post Coital Seminal Plasma with Potent Candidacidal Activity by a Calcium- and pH-Dependent Mechanism” (PLoS Pathogens, 2012)

Tested on: Candida albicans ATCC 90028
Experiment: CFU assay with C. albicans
Format: cell-based
Settings: for Estimate (difference between means of log values): control - treatment
Text: Candida albicans strains: ATCC 90028, CAF-1-2, SC5814, BM4f35II68, vaginal clinical isolates from Dept. of Clincal Microbiology, Skåne University Hospital, SO_303369 and SO_503471. Candida parapsilosis strains: ATCC 90018, BD1800, BD17837, and BM24/68/09. Candida glabrata strains: ATCC 90030, clinical isolates from Dept. of Clincal Microbiology, Skåne University Hospital, SO_3336, SO_3400 and SO_503413. All strains were inoculated from frozen culture and grown in Yeast extract-Peptone-Dextrose (YPD) (Sigma) and on Sabourand Dextrose Broth (SAB) (Difco) plates at 30°C with 5% (v/v) CO2. If not otherwise stated, ATCC 90028 was used for candidacidal experiments.
Candida albicans was grown over night, washed, and resuspended in 10 mM Tris, 5 mM glucose, pH 7.4 or pH 4. Approximately 4×10^3 to 10^4 CFU of C. albicans were incubated with the test substance in low or neutral pH buffer for 4 h at 37°C. After incubation, the suspension was diluted and plated. Colonies were counted after two days incubation of the plates at 30°C. Bacteria from overnight cultures were inoculated in fresh medium and grown for 3 h, washed in 10 mM Tris, 5 mM glucose pH 7.4. Approximately 8×10^4 CFU were incubated with sample in 10 mM Tris, 5 mM glucose pH 7.4 or pH 4 for 1 h at 37°C, diluted, plated and incubated over night at 37°C and the colonies counted.
Statistical analysis was performed using SAS 9.2 software (SAS Institute, Cary, NC). Colony counts were log transformed. In order to choose the statistical method, interactions between the Treatment and Experiment were investigated. Treatments were screened by doing pair wise comparisons of each treatment to a control. Statistical tests used for the comparisons included MIXED procedure and LSMEANS statement. All tests where P-value<.05 were considered to indicate statistical significance. P-values were not adjusted for the multiple comparisons.
“Estimate” is the estimate of the difference between means of log values of treatment 1 and treatment 2

## RIFKKEDCKYI [MSP66–76, eleven residues at the very tip of the loop (residue 66–76)]
50 µM + 50 µM EDTA, pH 7.4, + 50 µM calcium chloride, experiment 1
  Estimate (difference between means of log values): 0.4123
50 µM + 50 µM EDTA, pH 7.4, + 50 µM calcium chloride, experiment 2
  Estimate (difference between means of log values): -0.3545
50 µM + 50 µM EDTA, pH 7.4, + 50 µM calcium chloride, experiment 3
  Estimate (difference between means of log values): -0.7827
50 µM + 50 µM EDTA, pH 7.4, + 50 µM calcium chloride, experiment 4
  Estimate (difference between means of log values): 0.2633
50 µM + 50 µM EDTA, pH 7.4, + 50 µM calcium chloride, experiment 5
  Estimate (difference between means of log values): 0.02251
50 µM + 50 µM EDTA, pH 7.4, + 75 µM calcium chloride, experiment 1
  Estimate (difference between means of log values): 0.2228
50 µM + 50 µM EDTA, pH 7.4, + 75 µM calcium chloride, experiment 2
  Estimate (difference between means of log values): -0.4921
50 µM + 50 µM EDTA, pH 7.4, + 75 µM calcium chloride, experiment 3
  Estimate (difference between means of log values): -0.1876
50 µM + 50 µM EDTA, pH 7.4, + 75 µM calcium chloride, experiment 4
  Estimate (difference between means of log values): -0.2469
50 µM + 50 µM EDTA, pH 7.4, + 75 µM calcium chloride, experiment 5
  Estimate (difference between means of log values): -0.2312
50 µM + 50 µM EDTA, pH 7.4, + 100 µM calcium chloride, experiment 1
  Estimate (difference between means of log values): 0.07455
50 µM + 50 µM EDTA, pH 7.4, + 100 µM calcium chloride, experiment 2
  Estimate (difference between means of log values): -0.1459
50 µM + 50 µM EDTA, pH 7.4, + 100 µM calcium chloride, experiment 3
  Estimate (difference between means of log values): -0.4793
50 µM + 50 µM EDTA, pH 7.4, + 100 µM calcium chloride, experiment 4
  Estimate (difference between means of log values): -0.1979
50 µM + 50 µM EDTA, pH 7.4, + 100 µM calcium chloride, experiment 5
  Estimate (difference between means of log values): -0.3209
50 µM + 50 µM EDTA, pH 7.4, + 200 µM calcium chloride, experiment 1
  Estimate (difference between means of log values): 0.4296
50 µM + 50 µM EDTA, pH 7.4, + 200 µM calcium chloride, experiment 2
  Estimate (difference between means of log values): -0.6341
50 µM + 50 µM EDTA, pH 7.4, + 200 µM calcium chloride, experiment 3
  Estimate (difference between means of log values): -0.7050
50 µM + 50 µM EDTA, pH 7.4, + 200 µM calcium chloride, experiment 4
  Estimate (difference between means of log values): -0.2560
50 µM + 50 µM EDTA, pH 7.4, + 200 µM calcium chloride, experiment 5
  Estimate (difference between means of log values): 0.04894
50 µM + 50 µM EDTA, pH 7.4, no calcium, experiment 1
  Estimate (difference between means of log values): 5.2769
50 µM + 50 µM EDTA, pH 7.4, no calcium, experiment 2
  Estimate (difference between means of log values): 4.2266
50 µM + 50 µM EDTA, pH 7.4, no calcium, experiment 3
  Estimate (difference between means of log values): 2.8351
50 µM + 50 µM EDTA, pH 7.4, no calcium, experiment 4
  Estimate (difference between means of log values): 4.2317
50 µM + 50 µM EDTA, pH 7.4, no calcium, experiment 5
  Estimate (difference between means of log values): 5.0824
50 µM, no EDTA, pH 4, + 50 µM calcium chloride, experiment 1
  Estimate (difference between means of log values): 2.5872
50 µM, no EDTA, pH 4, + 50 µM calcium chloride, experiment 2
  Estimate (difference between means of log values): 2.7886
50 µM, no EDTA, pH 4, + 50 µM calcium chloride, experiment 3
  Estimate (difference between means of log values): 1.3256
50 µM, no EDTA, pH 4, + 50 µM calcium chloride, experiment 4
  Estimate (difference between means of log values): 2.0744
50 µM, no EDTA, pH 4, + 50 µM calcium chloride, experiment 5
  Estimate (difference between means of log values): 1.7552
50 µM, no EDTA, pH 4, + 75 µM calcium chloride, experiment 1
  Estimate (difference between means of log values): 2.5170
50 µM, no EDTA, pH 4, + 75 µM calcium chloride, experiment 2
  Estimate (difference between means of log values): 1.9220
50 µM, no EDTA, pH 4, + 75 µM calcium chloride, experiment 3
  Estimate (difference between means of log values): -0.3426
50 µM, no EDTA, pH 4, + 75 µM calcium chloride, experiment 4
  Estimate (difference between means of log values): 1.5746
50 µM, no EDTA, pH 4, + 75 µM calcium chloride, experiment 5
  Estimate (difference between means of log values): 1.0684
50 µM, no EDTA, pH 4, + 100 µM calcium chloride, experiment 1
  Estimate (difference between means of log values): 0.6973
50 µM, no EDTA, pH 4, + 100 µM calcium chloride, experiment 2
  Estimate (difference between means of log values): 1.1772
50 µM, no EDTA, pH 4, + 100 µM calcium chloride, experiment 3
  Estimate (difference between means of log values): 0.01412
50 µM, no EDTA, pH 4, + 100 µM calcium chloride, experiment 4
  Estimate (difference between means of log values): 1.0688
50 µM, no EDTA, pH 4, + 100 µM calcium chloride, experiment 5
  Estimate (difference between means of log values): 0.1005
50 µM, no EDTA, pH 4, + 200 µM calcium chloride, experiment 1
  Estimate (difference between means of log values): 1.0661
50 µM, no EDTA, pH 4, + 200 µM calcium chloride, experiment 2
  Estimate (difference between means of log values): 0.6082
50 µM, no EDTA, pH 4, + 200 µM calcium chloride, experiment 3
  Estimate (difference between means of log values): -0.8572
50 µM, no EDTA, pH 4, + 200 µM calcium chloride, experiment 4
  Estimate (difference between means of log values): 0.6184
50 µM, no EDTA, pH 4, + 200 µM calcium chloride, experiment 5
  Estimate (difference between means of log values): -1.1924
50 µM, no EDTA, pH 4, no calcium, experiment 1
  Estimate (difference between means of log values): 5.4425
50 µM, no EDTA, pH 4, no calcium, experiment 2
  Estimate (difference between means of log values): 4.7863
50 µM, no EDTA, pH 4, no calcium, experiment 3
  Estimate (difference between means of log values): 3.5454
50 µM, no EDTA, pH 4, no calcium, experiment 4
  Estimate (difference between means of log values): 4.0909
50 µM, no EDTA, pH 4, no calcium, experiment 5
  Estimate (difference between means of log values): 3.8004
140 µM + 0.5 mM calcium, pH 4, experiment 1
  Estimate (difference between means of log values): 1.0371
140 µM + 0.5 mM calcium, pH 4, experiment 2
  Estimate (difference between means of log values): 0.7970
140 µM + 0.5 mM calcium, pH 4, experiment 3
  Estimate (difference between means of log values): -0.5619
140 µM + 0.5 mM calcium, pH 4, experiment 4
  Estimate (difference between means of log values): 0.4135
140 µM + 0.5 mM magnesium, pH 4, experiment 1
  Estimate (difference between means of log values): 5.4081
140 µM + 0.5 mM magnesium, pH 4, experiment 2
  Estimate (difference between means of log values): 4.1263
140 µM + 0.5 mM magnesium, pH 4, experiment 3
  Estimate (difference between means of log values): 2.8985
140 µM + 0.5 mM magnesium, pH 4, experiment 4
  Estimate (difference between means of log values): 5.0596
140 µM, pH 4, experiment 1
  Estimate (difference between means of log values): 5.5432
140 µM, pH 4, experiment 2
  Estimate (difference between means of log values): 4.1263
140 µM, pH 4, experiment 3
  Estimate (difference between means of log values): 2.8985
140 µM, pH 4, experiment 4
  Estimate (difference between means of log values): 4.7326
Neutral pH (MSP66–76 with equimolar EDTA)
  Calcium concentration that completely inhibited the antifungal activity: 50 µM
